Measurements taken from patent US7659271B2, “Pyrimidine compound having dibenzylamine structure and medicament comprising the same” (Kowa Company, Ltd., priority 2007, dated 2010).

Molecular target: T1, CETP (Homo sapiens, UniProt P11597)
T1 construct: The CETP activity in this plasma was measured with Cholesteryl Ester Transfer Protein Activity kit; from tissue; host or cells: human plasma
T1 sequence (P11597 18-493): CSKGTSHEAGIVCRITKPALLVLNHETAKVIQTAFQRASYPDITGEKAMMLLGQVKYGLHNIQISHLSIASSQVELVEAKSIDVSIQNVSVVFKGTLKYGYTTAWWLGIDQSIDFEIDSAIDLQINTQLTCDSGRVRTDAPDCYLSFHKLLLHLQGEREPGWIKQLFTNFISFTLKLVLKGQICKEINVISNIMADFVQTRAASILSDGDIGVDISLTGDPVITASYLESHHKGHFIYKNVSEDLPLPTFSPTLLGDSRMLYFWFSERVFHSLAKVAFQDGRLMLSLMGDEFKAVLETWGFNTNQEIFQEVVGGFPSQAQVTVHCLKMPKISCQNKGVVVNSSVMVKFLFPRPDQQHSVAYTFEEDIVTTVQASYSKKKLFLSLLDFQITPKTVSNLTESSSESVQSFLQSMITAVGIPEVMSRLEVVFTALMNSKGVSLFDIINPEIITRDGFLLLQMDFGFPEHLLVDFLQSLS
Experiment: Measurement of CETP inhibitory action in human plasma
Format: biochemical
Settings: incubated with compound 37° C. 4 hours, Roar Biomedical CETP Activity kit, read-out: IC50 (concentration inhibiting the CETP activity by 50%)
Method: A solution obtained by dissolving an exemplary compound in polyethylene glycol/N-methyl-2-pyrrolidone (vol/vol=1/1) was added to human plasma, and the mixture was incubated in an incubator at 37° C. for 4 hours. The CETP activity in this plasma was measured with Cholesteryl Ester Transfer Protein Activity kit (Roar Biomedical, catalog No.: RB-CETP). Specifically, to each well of a 96-well plate, 95 μL of a buffer (10 mM Tris, 150 mM NaCl, 2 mM EDTA, pH 7.4), 2 μL of Donor particle and 2 μL of Acceptor particle were added, 1 μL of the human plasma after the incubation was added to the mixture, and the mixture was incubated in an incubator at 37° C. for 2 hours. After completion of the incubation, fluorescence intensity (FLU) was measured with a fluorescence plate reader (excitation wavelength: 465 nm, emission wavelength: 535 nm). In accordance with the following equation 1, the CETP activity (% of control) was obtained for the compounds of the examples for two or more concentrations. CETP activity (% of control)=(Sample FLU−Blank FLU)×100/(Control FLU−Blank FLU) (Equation 1)
In the equation, the terms have the following meanings: […]
Blank FLU: Fluorescence intensity of sample not added with plasma
Control FLU: Fluorescence intensity of plasma not added with solution of compound
Sample FLU: Fluorescence intensity of plasma added with solution of compound
A value obtained by subtracting the value of the CETP activity from 100 was defined as the CETP inhibitory rate of each exemplary compound, and a concentration inhibiting the CETP activity by 50% (IC50) was calculated for each exemplary compound from the values of the CETP inhibitory rate at two or more concentrations.

Structure (SMILES) | IC50 [µM]
CCN(CC1CCCC1)c1c(F)cc(F)cc1CN(c1ncc(OCCS(C)(=O)=O)cn1)C(C)c1cc(C(F)(F)F)cc(C(F)(F)F)c1 (stereo not drawn) [Example 7, N-{1-[3,5-bis(trifluoromethyl)phenyl]ethyl}-N-({2-[(cyclopentylmethyl)(ethyl)amino]-3,5-difluorophenyl}methyl)-5-[2-(methylsulfonyl)ethoxy]pyrimidin-2-amine] | 0.3
CCN(CC1CCCC1)c1ccc(C)cc1CN(c1ncc(OCCS(C)(=O)=O)cn1)C(C)c1cc(C(F)(F)F)cc(C(F)(F)F)c1 (stereo not drawn) [Example 9, N-{1-[3,5-bis(trifluoromethyl)phenyl]ethyl}-N-({2-[(cyclopentylmethyl)(ethyl)amino]-5-methylphenyl}methyl)-5-[2-(methylsulfonyl)ethoxy]pyrimidin-2-amine] | 0.07
CCN(CC1CCCC1)c1ccc(F)cc1CN(c1ncc(OCCS(C)(=O)=O)cn1)C(C)c1cc(C(F)(F)F)cc(C(F)(F)F)c1 (stereo not drawn) [Example 26, N-{1-[3,5-bis(trifluoromethyl)phenyl]ethyl}-N-({2-[(cyclopentylmethyl)(ethyl)amino]-5-fluorophenyl}methyl)-5-[2-(methylsulfonyl)ethoxy]pyrimidin-2-amine] | 0.25
CCN(CC1CCCC1)c1cc(C(F)(F)F)ccc1CN(c1ncc(OCCS(C)(=O)=O)cn1)C(C)c1cc(C(F)(F)F)cc(C(F)(F)F)c1 (stereo not drawn) [Example 16, N-{1-[3,5-bis(trifluoromethyl)phenyl]ethyl}-N-({2-[(cyclopentylmethyl)(ethyl)amino]-4-(trifluoromethyl)phenyl}methyl)-5-[2-(methylsulfonyl)ethoxy]pyrimidin-2-amine] | 0.15
CCN(CC1CCCC1)c1ccc(C(F)(F)F)cc1CN(c1ncc(OCC[S+](C)[O-])cn1)C(C)c1cc(C(F)(F)F)cc(C(F)(F)F)c1 (stereo not drawn) [Example 2, N-{1-[3,5-bis(trifluoromethyl)phenyl]ethyl}-N-({2-[(cyclopentylmethyl)(ethyl)amino]-5-(trifluoromethyl)phenyl}methyl)-5-[2-(methylsulfinyl)ethoxy]pyrimidin-2-amine] | 0.04
CCN(CC1CCCC1)c1cc(Br)ccc1CN(c1ncc(OCCS(C)(=O)=O)cn1)C(C)c1cc(C(F)(F)F)cc(C(F)(F)F)c1 (stereo not drawn) [Example 28, N-{1-[3,5-bis(trifluoromethyl)phenyl]ethyl}-N-({4-bromo-2-[(cyclopentylmethyl)(ethyl)amino]phenyl}methyl)-5-[2-(methylsulfonyl)ethoxy]pyrimidin-2-amine] | 0.2
CCN(C[C@H]1CC[C@H](CC(=O)O)CC1)c1ccc(C(F)(F)F)cc1CN(c1ncc(OCCS(C)(=O)=O)cn1)C(C)c1cc(C(F)(F)F)cc(C(F)(F)F)c1 (stereo partly drawn) [Example 45, trans-{4-[({2-[({1-[3,5-bis(trifluoromethyl)phenyl]ethyl}{5-[2-(methylsulfonyl)ethoxy]pyrimidin-2-yl}amino)methyl]-4-(trifluoromethyl)phenyl}(ethyl)amino)methyl]cyclohexyl}acetic acid] | 0.12
CCN(CC1CCCC1)c1cc(OC)ccc1CN(c1ncc(OCCS(C)(=O)=O)cn1)C(C)c1cc(C(F)(F)F)cc(C(F)(F)F)c1 (stereo not drawn) [Example 13, N-{1-[3,5-bis(trifluoromethyl)phenyl]ethyl}-N-({2-[(cyclopentylmethyl)(ethyl)amino]-4-methoxyphenyl}methyl)-5-[2-(methylsulfonyl)ethoxy]pyrimidin-2-amine] | 0.1
CCN(CC1CCCC1)c1ccccc1CN(c1ncc(OCCS(C)(=O)=O)cn1)C(C)c1cc(C(F)(F)F)cc(C(F)(F)F)c1 (stereo not drawn) [Example 20, N-{1-[3,5-bis(trifluoromethyl)phenyl]ethyl}-N-({2-[(cyclopentylmethyl)(ethyl)amino]phenyl}methyl)-5-[2-(methylsulfonyl)ethoxy]pyrimidin-2-amine] | 0.8
